{"source": "patent US8912359B2", "about": "“Bisbenzamidines for the treatment of pneumonia” (University of Cincinnati, priority 2003, dated 2014)", "key": {"[1]": {"test_system": "Pneumocystis", "experiment": "Pneumocystis ATP detection assay", "assay_type": "cell-based, P. carinii", "settings": "for IC50: concentration reducing ATP content of Pneumocystis populations by 50% vs untreated controls, 48 hours exposure (Table 1 title); for Anti-Pneumocystis Activity: semi-qualitative scale from highly active to no activity, based on IC50", "text": "An ATP assay system (Cushion, Chen et al., 1997; Chen & Cushion, 1994; Collins & Cushion, 2001) was used to evaluate bisbenzamidine analogues as potential therapeutic targets for treatment of pneumonia, particularly that caused by species in the genus Pneumocystis. […]. Development of these compounds could provide new and novel treatment choices for Pneumocystis pneumonia.\nA series of novel bisbenzamidines linked by either a rigid (for instance, a phenylene diamide) or a flexible (for instance, a propyl diamide) core are described. Such compounds may be used for the treatment of infections, such as pneumonia and for instance, pneumonia caused by Pneumocystis.\nThe structure-activity relationships for the piperazine-linked bisbenzamidines and the toxicities of each compound in three different mammalian cell lines are shown in the following tables. Compounds are ranked in order of the lowest concentration necessary to reduce the ATP content of Pneumocystis populations by 50% (i.e., the IC50) compared to untreated control populations. Note that the IC50 values are expressed on a microgram per milliliter and micromolar basis. […];"}, "[2]": {"test_system": "Calf thymus DNA", "experiment": "DNA Binding ΔTm, calf thymus"}, "[3]": {"test_system": "Poly (dA-dT)", "experiment": "DNA Binding ΔTm, Poly (dA-dT)"}, "[4]": {"test_system": "WI-38", "experiment": "toxicity to WI-38 cell line (ATP system)", "source_text": "(§1) Two transformed cell lines derived from two different organ systems and a primary cell line were chosen for evaluation of the relative toxicity of each compound. […] The Hep-G2 cell line is an epithelial cell line derived from a human hepatocellular carcinoma, and WI-38 is a human diploid cell line derived from normal embryonic (3 months of gestation) lung tissue."}, "[5]": {"test_system": "A549 lung epithelial cells", "source_text": "as §1"}}, "note": "Read-outs that look alike come from different tables or passages of the source.", "data": [{"smiles": "N=C(N)c1ccc(OCCCCCOc2ccc(C(=N)N)cc2)cc1", "note": "[Pentamidine, reference compound]", "values": [{"measurement": "IC50", "setting": "[1]", "value": 0.3, "unit": "µg/mL"}, {"measurement": "Anti-Pneumocystis Activity", "setting": "[1]", "value": "marked"}, {"measurement": "DNA Binding ΔTm Calf thymus", "setting": "[2]", "value": 11.1, "unit": "°C"}, {"measurement": "DNA Binding ΔTm Poly (dA-dT)", "setting": "[3]", "value": 20.6, "unit": "°C"}]}, {"smiles": "CCCCCNC(=N)c1ccc(N2CCN(c3ccc(C(=N)NCCCCC)cc3)CC2)cc1", "note": "[compound 2, 4,4′-(1,4-piperazinediyl)bis(N-pentylbenzenecarboximidamide)]", "values": [{"measurement": "Anti-Pneumocystis Activity", "setting": "[1]", "value": "Highly Active"}, {"measurement": "DNA Binding ΔTm Calf thymus", "setting": "[2]", "value": 16.9, "unit": "°C"}, {"measurement": "DNA Binding ΔTm Poly (dA-dT)", "setting": "[3]", "value": 22.5, "unit": "°C"}]}, {"smiles": "CCCCCCNC(=N)c1ccc(N2CCN(c3ccc(C(=N)NCCCCCC)cc3)CC2)cc1", "note": "[compound 3, 4,4′-(1,4-piperazinediyl)bis(N-hexylbenzenecarboximidamide)]", "values": [{"measurement": "Anti-Pneumocystis Activity", "setting": "[1]", "value": "Highly Active"}, {"measurement": "DNA Binding ΔTm Calf thymus", "setting": "[2]", "value": 10.7, "unit": "°C"}, {"measurement": "DNA Binding ΔTm Poly (dA-dT)", "setting": "[3]", "value": 10.1, "unit": "°C"}]}, {"smiles": "CCCCCCCNC(=N)c1ccc(N2CCN(c3ccc(C(=N)NCCCCCCC)cc3)CC2)cc1", "note": "[compound 5, 4,4′-(1,4-piperazinediyl)bis(N-heptylbenzenecarboximidamide)]", "values": [{"measurement": "toxicity in WI-38 line", "setting": "[4]", "value": "without toxicity"}, {"measurement": "toxicity in A549 line", "setting": "[5]", "value": "without toxicity"}, {"measurement": "Anti-Pneumocystis Activity", "setting": "[1]", "value": "Very Marked"}, {"measurement": "DNA Binding ΔTm Calf thymus", "setting": "[2]", "value": 8.7, "unit": "°C"}, {"measurement": "DNA Binding ΔTm Poly (dA-dT)", "setting": "[3]", "value": 8.5, "unit": "°C"}]}, {"smiles": "CCCCCCCCNC(=N)c1ccc(N2CCN(c3ccc(C(=N)NCCCCCCCC)cc3)CC2)cc1", "note": "[compound 11, 4,4′-(1,4-piperazinediyl)bis(N-octylbenzenecarboximidamide)]", "values": [{"measurement": "Anti-Pneumocystis Activity", "setting": "[1]", "value": "Marked"}, {"measurement": "DNA Binding ΔTm Calf thymus", "setting": "[2]", "value": 4.2, "unit": "°C"}]}, {"smiles": "CCCCCCCCCNC(=N)c1ccc(N2CCN(c3ccc(C(=N)NCCCCCCCCC)cc3)CC2)cc1", "note": "[compound 14, 4,4′-(1,4-piperazinediyl)bis(N-nonylbenzenecarboximidamide)]", "values": [{"measurement": "Anti-Pneumocystis Activity", "setting": "[1]", "value": "Marked"}, {"measurement": "DNA Binding ΔTm Calf thymus", "setting": "[2]", "value": 1.3, "unit": "°C"}, {"measurement": "DNA Binding ΔTm Poly (dA-dT)", "setting": "[3]", "value": 2.7, "unit": "°C"}]}, {"smiles": "CCCCCCCCCCCCNC(=N)c1ccc(N2CCN(c3ccc(C(=N)NCCCCCCCCCCCC)cc3)CC2)cc1", "note": "[compound 15, 4,4′-(1,4-piperazinediyl)bis(N-dodecylbenzenecarboximidamide)]", "values": [{"measurement": "toxicity in A549 line", "setting": "[5]; human", "value": "not the A549 line"}, {"measurement": "Anti-Pneumocystis Activity", "setting": "[1]", "value": "Marked"}, {"measurement": "DNA Binding ΔTm Calf thymus", "setting": "[2]", "value": 0.6, "unit": "°C"}, {"measurement": "DNA Binding ΔTm Poly (dA-dT)", "setting": "[3]", "value": 0.0, "unit": "°C"}]}, {"smiles": "CCNC(=N)c1ccc(N2CCN(c3ccc(C(=N)NCC)cc3)CC2)cc1", "note": "[compound 16, 4,4′-(1,4-piperazinediyl)bis(N-ethylbenzenecarboximidamide)]", "values": [{"measurement": "IC50", "setting": "[1]", "value": 0.542, "unit": "µg/mL"}, {"measurement": "Anti-Pneumocystis Activity", "setting": "[1]", "value": "marked"}, {"measurement": "Anti-Pneumocystis Activity", "setting": "[1]; listed as —C2H5", "value": "Marked"}, {"measurement": "DNA Binding ΔTm Calf thymus", "setting": "[2]", "value": 15.3, "unit": "°C"}, {"measurement": "DNA Binding ΔTm Poly (dA-dT)", "setting": "[3]", "value": 18.6, "unit": "°C"}]}, {"smiles": "CCCCCCCCCCNC(=N)c1ccc(N2CCN(c3ccc(C(=N)NCCCCCCCCCC)cc3)CC2)cc1", "note": "[compound 18, 4,4′-(1,4-piperazinediyl)bis(N-decylbenzenecarboximidamide)]", "values": [{"measurement": "Anti-Pneumocystis Activity", "setting": "[1]", "value": "Marked"}, {"measurement": "DNA Binding ΔTm Calf thymus", "setting": "[2]", "value": 1.3, "unit": "°C"}]}]}
